The values below come from ChEMBL document CHEMBL3616391, “Fatty Acid Synthase (FASN) Inhibitors as Potential Treatment for Cancer, Obesity, and Liver Related Disorders” (ACS Med Chem Lett, 2015).

The test system of test [1] is A2780. The experiment in a line: Antiproliferative activity against human A2780 cells in lipid reduced medium in presence of palmitate. The format is functional, cell-based.
Test [2] concerns A2780. Description: Antiproliferative activity against human A2780 cells in lipid reduced medium in absence of palmitate. Type of test: functional, cell-based.
The target of a further test is Fatty acid synthase (Homo sapiens, UniProt P49327). The experiment in a line: Inhibition of fatty acid synthase keto-reductase domain (unknown origin).
Fatty acid synthase, sequence (P49327 whole entry, the tested form may be a part): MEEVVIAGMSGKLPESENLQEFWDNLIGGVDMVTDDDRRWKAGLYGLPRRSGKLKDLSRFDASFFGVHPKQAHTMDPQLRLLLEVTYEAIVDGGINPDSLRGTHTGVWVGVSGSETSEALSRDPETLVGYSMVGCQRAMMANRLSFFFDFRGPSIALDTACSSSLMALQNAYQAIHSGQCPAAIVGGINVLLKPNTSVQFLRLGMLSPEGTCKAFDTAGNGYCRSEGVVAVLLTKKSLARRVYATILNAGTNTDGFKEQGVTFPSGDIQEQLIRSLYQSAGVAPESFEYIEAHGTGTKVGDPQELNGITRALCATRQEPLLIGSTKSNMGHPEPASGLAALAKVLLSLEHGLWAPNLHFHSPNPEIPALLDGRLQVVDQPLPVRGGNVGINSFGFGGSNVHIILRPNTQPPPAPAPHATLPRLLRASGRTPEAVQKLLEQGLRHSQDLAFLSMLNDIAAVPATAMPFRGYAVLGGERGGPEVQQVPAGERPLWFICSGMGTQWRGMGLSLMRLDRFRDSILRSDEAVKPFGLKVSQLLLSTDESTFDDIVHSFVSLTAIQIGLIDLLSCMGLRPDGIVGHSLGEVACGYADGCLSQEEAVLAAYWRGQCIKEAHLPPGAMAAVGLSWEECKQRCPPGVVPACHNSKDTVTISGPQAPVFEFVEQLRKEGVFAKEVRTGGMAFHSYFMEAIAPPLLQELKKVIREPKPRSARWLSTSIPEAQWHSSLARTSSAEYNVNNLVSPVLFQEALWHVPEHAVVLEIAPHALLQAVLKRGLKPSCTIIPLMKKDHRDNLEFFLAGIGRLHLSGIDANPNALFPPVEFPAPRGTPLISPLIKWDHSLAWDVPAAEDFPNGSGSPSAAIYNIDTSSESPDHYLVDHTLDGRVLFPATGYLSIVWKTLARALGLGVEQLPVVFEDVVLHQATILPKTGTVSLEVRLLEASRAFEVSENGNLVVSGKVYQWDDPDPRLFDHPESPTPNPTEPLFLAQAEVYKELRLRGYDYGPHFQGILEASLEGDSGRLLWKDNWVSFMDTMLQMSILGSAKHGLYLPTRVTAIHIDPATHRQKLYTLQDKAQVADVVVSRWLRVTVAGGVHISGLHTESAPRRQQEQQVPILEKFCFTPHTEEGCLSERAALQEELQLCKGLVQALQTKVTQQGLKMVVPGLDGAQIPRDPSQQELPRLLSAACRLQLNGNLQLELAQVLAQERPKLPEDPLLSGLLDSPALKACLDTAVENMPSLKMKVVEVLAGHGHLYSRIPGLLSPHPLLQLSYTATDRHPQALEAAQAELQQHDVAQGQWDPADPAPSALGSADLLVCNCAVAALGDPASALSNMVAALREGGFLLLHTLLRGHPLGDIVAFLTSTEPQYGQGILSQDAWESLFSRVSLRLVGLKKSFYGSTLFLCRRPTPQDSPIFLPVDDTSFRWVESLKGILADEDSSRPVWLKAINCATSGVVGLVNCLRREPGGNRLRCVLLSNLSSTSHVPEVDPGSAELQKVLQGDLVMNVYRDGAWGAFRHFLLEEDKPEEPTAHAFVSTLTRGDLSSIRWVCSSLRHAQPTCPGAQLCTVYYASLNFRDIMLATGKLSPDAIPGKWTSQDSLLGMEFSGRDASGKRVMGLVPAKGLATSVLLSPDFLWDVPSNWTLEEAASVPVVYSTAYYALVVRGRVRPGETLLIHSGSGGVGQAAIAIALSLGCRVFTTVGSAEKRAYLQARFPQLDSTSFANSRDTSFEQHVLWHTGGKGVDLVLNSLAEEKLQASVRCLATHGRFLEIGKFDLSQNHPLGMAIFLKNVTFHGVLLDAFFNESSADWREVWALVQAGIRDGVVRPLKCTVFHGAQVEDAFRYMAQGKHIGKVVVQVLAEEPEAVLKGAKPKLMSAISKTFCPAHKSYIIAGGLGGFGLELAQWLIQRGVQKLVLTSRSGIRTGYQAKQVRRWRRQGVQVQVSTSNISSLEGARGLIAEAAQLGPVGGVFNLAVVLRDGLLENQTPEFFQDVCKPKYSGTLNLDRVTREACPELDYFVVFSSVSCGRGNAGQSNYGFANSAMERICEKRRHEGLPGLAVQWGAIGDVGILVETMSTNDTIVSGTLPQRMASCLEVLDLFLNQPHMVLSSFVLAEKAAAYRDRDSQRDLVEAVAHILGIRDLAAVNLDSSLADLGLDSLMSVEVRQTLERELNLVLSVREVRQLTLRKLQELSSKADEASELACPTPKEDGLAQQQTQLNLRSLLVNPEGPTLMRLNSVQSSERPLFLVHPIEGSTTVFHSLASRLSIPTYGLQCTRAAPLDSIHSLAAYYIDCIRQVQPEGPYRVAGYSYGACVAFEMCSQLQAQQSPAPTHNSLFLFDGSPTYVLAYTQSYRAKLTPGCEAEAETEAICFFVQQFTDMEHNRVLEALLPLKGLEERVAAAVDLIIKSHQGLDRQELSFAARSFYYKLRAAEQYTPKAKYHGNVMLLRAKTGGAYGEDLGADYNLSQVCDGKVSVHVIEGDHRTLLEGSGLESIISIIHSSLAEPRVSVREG
A further test deals with LNCaP. Description: Antiproliferative activity against human LNCAP cells in lipid reduced medium. The format is functional, cell-based.
The subject of the next test is PC-3M. Description: Antiproliferative activity against human PC3M cells expressing Luc-C6 in lipid reduced medium. Type of test: functional, cell-based.

A word on the IC50: it is the concentration that gives 50% inhibition. In the case of `CC1(C)N=C(c2ccc(-c3ccc4[nH]ccc4c3)cc2)N(C[C@@H]2CCN(C(=O)C3CC3)C2)C1=O`, the values for the IC50 in the test on A2780 [1] and in the test with A2780 [2] were above 10 µM and 74.1 nM, respectively.
For `CC1(C)N=C(c2ccc(-c3ccc4cccnc4c3)cc2)N(C[C@@H]2CCN(C(=O)C3CC3)C2)C1=O`, the IC50 against Fatty acid synthase is 56.2 nM; in the test on A2780 [1], above 10 µM; in the test with A2780 [2], 75.9 nM; with LNCaP, 219 nM; in the test on PC-3M, 53.7 nM.
As to `CC1(C)N=C(c2ccc(-c3ccc4cccc(F)c4c3)cc2)N(CC2CN(C(=O)C3CC3)C2)C1=O`, the IC50 in the test on A2780 [1] is 5.62 µM; in the test with A2780 [2], 468 nM; with LNCaP, 2040 nM.
As to `Cn1ncc2cc(-c3ccc(C4=NC(C)(C)C(=O)N4C[C@@H]4CCN(C(=O)C5CC5)C4)c(F)c3)ccc21`, the IC50 is 724 nM in the test with LNCaP and 132 nM in the test with PC-3M.
For `CC1(C)N=C(c2ccc(-c3nc4ccccc4[nH]3)cc2)N(C[C@@H]2CCN(C(=O)C3CC3)C2)C1=O`, the half-inhibitory concentration (IC50) in the test with A2780 [1] is above 10 µM; with A2780 [2], 9330 nM.
The matching figures for `Cn1cc(-c2ccc(-c3ccc(C4=NC(C)(C)C(=O)N4C[C@@H]4CCN(C(=O)C5(O)CC5)C4)c(F)c3)cc2)cn1`: above 10 µM and 5.37 nM.
